These results are taken from ChEMBL document CHEMBL1149382 (J Med Chem, 2006).

In brackets after ≈: the same amount, converted by molar mass. Activity calls are given as the source filed them. No cut-off for these calls is given here.

For experiment [1], the system named is Trypanosoma cruzi. The experiment can be described thus: Antiprotozoal activity against Trypanosoma cruzi epimastigotes. Format: functional, organism-based.
The subject of experiment [2] is Trypanosoma cruzi. Briefly: Disruption of calcium homeostasis in Trypanosoma cruzi. Format: functional, organism-based.
Experiment [3] concerns Trypanosoma cruzi. The experiment can be described thus: Antiprotozoal activity against Trypanosoma cruzi amastigotes. The format is functional, organism-based.
In experiment [4] the test system is Trypanosoma cruzi. Briefly: Ability to block ergosterol biosynthesis in Trypanosoma cruzi. Format: functional, organism-based.
Experiment [5] deals with T1, Farnesyl diphosphate synthase (Trypanosoma cruzi) (UniProt Q8WS26).
T1 sequence (whole entry): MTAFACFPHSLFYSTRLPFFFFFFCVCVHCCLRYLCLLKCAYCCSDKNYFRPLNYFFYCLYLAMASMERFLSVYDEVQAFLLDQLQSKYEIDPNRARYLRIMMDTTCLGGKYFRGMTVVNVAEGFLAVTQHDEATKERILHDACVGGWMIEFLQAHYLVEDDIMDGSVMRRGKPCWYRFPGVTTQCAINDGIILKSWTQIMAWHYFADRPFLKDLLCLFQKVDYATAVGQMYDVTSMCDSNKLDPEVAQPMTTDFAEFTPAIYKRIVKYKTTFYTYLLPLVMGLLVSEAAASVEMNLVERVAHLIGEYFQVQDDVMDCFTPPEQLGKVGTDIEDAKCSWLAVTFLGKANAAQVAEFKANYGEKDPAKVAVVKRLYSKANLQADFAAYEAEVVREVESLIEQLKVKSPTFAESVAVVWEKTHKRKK
The experiment can be described thus: Inhibitory activity against recombinant farnesyl diphosphate synthase at 50 uM.

The target in experiment [6] is lanosterol synthase / oxidosqualene cyclase (Homo sapiens) (UniProt P48449). The experiment can be described thus: Inhibitory activity against oxidosqualene cyclase.
Sequence of lanosterol synthase / oxidosqualene cyclase (Homo sapiens) (P48449 whole entry, looked up): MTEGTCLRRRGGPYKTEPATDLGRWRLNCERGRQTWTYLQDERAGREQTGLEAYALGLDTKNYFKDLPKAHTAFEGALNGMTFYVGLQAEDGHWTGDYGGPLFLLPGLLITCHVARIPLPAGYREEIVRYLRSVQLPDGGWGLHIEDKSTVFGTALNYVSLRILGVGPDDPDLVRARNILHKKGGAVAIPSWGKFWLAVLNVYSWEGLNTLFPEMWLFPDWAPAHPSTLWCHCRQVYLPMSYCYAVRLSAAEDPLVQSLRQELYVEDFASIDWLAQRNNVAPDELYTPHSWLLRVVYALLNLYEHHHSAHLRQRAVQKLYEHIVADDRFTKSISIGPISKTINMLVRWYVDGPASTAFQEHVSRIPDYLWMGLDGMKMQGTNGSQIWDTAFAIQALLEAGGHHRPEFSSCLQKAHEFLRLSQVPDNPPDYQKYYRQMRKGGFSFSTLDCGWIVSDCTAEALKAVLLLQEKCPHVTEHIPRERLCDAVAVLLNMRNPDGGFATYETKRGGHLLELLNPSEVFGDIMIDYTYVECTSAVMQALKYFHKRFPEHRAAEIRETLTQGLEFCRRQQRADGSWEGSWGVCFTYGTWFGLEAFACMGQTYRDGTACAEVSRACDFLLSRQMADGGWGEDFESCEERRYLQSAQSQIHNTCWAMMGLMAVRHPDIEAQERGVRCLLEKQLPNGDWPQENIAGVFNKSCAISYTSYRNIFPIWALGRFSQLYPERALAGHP

As a reminder, the MIC is the lowest concentration found to suppress growth. Low readings indicate inhibition by little substance, high ones a need for much substance. A word on the IC50: it is the concentration that gives 50% inhibition. Lower therefore signals higher potency. Turning to `CCCCc1oc2ccccc2c1C(=O)c1cc(I)c(OCCN(CC)CC)c(I)c1` [AMIODARONE], the MIC was 20 µM (≈ 12.9 µg/mL) with Trypanosoma cruzi [1] and 8 µM (≈ 5.16 µg/mL) against Trypanosoma cruzi [3]. Further, the result in the experiment with Trypanosoma cruzi [2] and with Trypanosoma cruzi [4] was Active. In addition, the inhibition entry in experiment [5] is “inactive”. Moreover, in experiment [6], the half-maximal inhibitory concentration (IC50) entry was “Active”.
For the compound `CC[C@@H]([C@H](C)O)n1ncn(-c2ccc(N3CCN(c4ccc(OC[C@@H]5CO[C@@](Cn6cncn6)(c6ccc(F)cc6F)C5)cc4)CC3)cc2)c1=O` [POSACONAZOLE], the IC50 in the experiment on Trypanosoma cruzi [1] was 14 nM; in the experiment on Trypanosoma cruzi [3], 0.25 nM. The MIC in the experiment with Trypanosoma cruzi [1] is 0.02 µM (≈ 0.014 µg/mL); in the experiment with Trypanosoma cruzi [3], 0.003 µM (≈ 0.0021 µg/mL). The result in the experiment on Trypanosoma cruzi [2] was Active.
